In patent publication US11214624B2, “Method to prevent cancer metastasis and inhibit inflammation by inhibition of p68 interaction with calmodulin” (Proda Biotech LLC, priority 2012, dated 2022):
“Also recorded” adds a separate entry of the source. No end group written: not given here. TAT = TAT cell-permeable sequence

Columns and labels:
[1] = system: 4T1 cells; assay: 4T1 cell migration (Boyden chamber and scratch-wound assays); type: cell-based, mouse
Procedure: Scratch-wound treatments: A scratch or multiple scratches using pipette tips were introduced into a 6 well cell culture plate. The cells were further cultured under serum starvation for 30 minutes, and were subsequently cultured for an additional indicated time. The scratch-treated cells were either directly visualized by microscopes or the cells were fixed and subsequently examined by immunostaining. Alternatively, the cells were collected and lysized. The prepared cellular extracts were then used for other analyses. Boyden chamber assay: QCM™ 24-Well Fluorimetric Cell Migration Assay kit was used to measure the migration of SW480 cells. The test cells were first treated under the different conditions in regular cell culture plates. The treated cells were re-suspended into optimum medium (without serum) and seeded into the inner chamber of the migration assay kit. The L-15 culture medium with 10% FBS was added to the outer chambers. After overnight incubation, medium in the inner chamber was removed and the cells attached to the outer bottom side were detached using the cell detachment buffer (included in the kit). The detached cells were then lysed using the cell lysis buffer (included in the kit). The amounts of the migrated cells were determined by measuring the fluorescence using λex=485 nm and λem=535 nm. The migration of the control cells with p68 knockdown was defined as 1. […]

[2] = system: SW620 xenograft; assay: Metastasis inhibition of SW620 xenograft (human CK-18 RT-PCR of spleen extracts); type: in vivo, nude mice; settings: for Effect on SW620 metastasis: peptide 2 mg/kg i.p. daily for two weeks
Procedure: (§1) Metastasis inhibition of SW620 xenograft and orthotopic 4T1 tumors: All animal experiments were carried out in accordance with the guidelines of IACUC of Georgia State University. Nude mice or Balb/c mice (6 to 7 weeks old, Harlan Laboratory) were subcutaneously or orthotopically injected with 5×10^6 SW620 or 2×10^6 4T1 cells. Peptides at appropriate doses were administered to the tumor bearing mice by intraperitoneal (i.p.) injection at appropriate time intervals. Tumor formation and volumes were assessed every 2 days. Tumor volumes were measured by two perpendicular diameters of the tumors over a 4-week time course with the formula 4p/3×(width/2)^2×(length/2). The tumors and organs were collected and weighed at the end of the experiments. Tissue sections were prepared from harvested tumors and organs. Tissue sections were analyzed by either H&E or immune staining. For metastasis analyses of SW620 tumors, tissue extracts were prepared from spleens, total RNAs were extracted from the tissue extracts. RT-PCRs were performed with the isolated RNAs. For metastasis of 4T-1 cells, lung and liver were inspected.
The peptides were used to treat a nude mice xenograft of SW620 cells at dose of 2 mg/kg (i.p. daily dose for two weeks). SW620 cells were used because they contain high p68 Y593 phosphorylation (Carter, C L, et al. Oncogene 29:5427-5436 (2010); Yang, L, et al. Mol Cancer Res 3:355-363 (2005)). It is well established that the xenograft of SW620 will metastasize to lymph nodes, and the metastasis can be analyzed by examination of SW620 cells in the spleen (Liu, K, et al. J Immunol 171:4164-4174 (2003)).

[3] = system: E-cadherin and vimentin; assay: PDGF stimulated EMT, cellular levels of EMT markers; type: cell-based
Source text: We also examined whether the peptides would abolish PDGF stimulated EMT by analyzing the cellular levels of EMT markers, E-cadherin and vimentin. […] The effect of the PepIQ peptide on cancer metastasis was confirmed by an additional treatment using the PepIQ and a control peptide with a scrambled sequence (PepScram) (FIG. 6, Table 2, Table 4).

[4] = biological target: T1, Myosin-II-CaM interaction (Homo sapiens, UniProt P0DP23); assay: Myosin-CaM co-immunoprecipitation in SW480 cell extracts; type: cell-based; settings: SW480 cells with/without multiple scratch-wound
T1 construct: endogenous in cells; host or cells: SW480
Procedure: (§2) To test whether the PepIQ peptide disrupted the interaction of IQGAP1 or Myosin-II with CaM, cell extracts of SW480 cells that were treated by the PepIQ with/without multiple scratch-wound were co-immunoprecipitated using the antibody against CaM. […] The results also excluded a possibility that the PepIQ sequestered all CaM in the cells therefore inhibited cell migration. Thus, these experiments supported the notion that cell migration strengthened the p68-CaM interaction, and the IQ peptide disrupted the p68-CaM interaction induced by migration, thereby inhibiting cell migration.

[5] = biological target: T2, IQGAP1-CaM interaction (Homo sapiens, UniProt P0DP23); assay: IQGAP1-CaM co-immunoprecipitation in SW480 cell extracts; type: cell-based; settings: SW480 cells with/without multiple scratch-wound
T2 construct: endogenous in cells; host or cells: SW480
Procedure: as §2

[6] = system: Mouse breast cancer 4T1 cells; assay: Orthotopic 4T1 tumor metastasis model; type: in vivo, Balb/c mouse
Procedure: as §1
The PepIQ was very effective in inhibiting cancer metastasis with xenograft model of SW620 cells, indicating a potential application for metastasis intervention using the peptide or its derivatives. Thus, the effects of the peptide on metastasis in another cancer model was tested. Mouse breast cancer 4T1 cells were implanted into mammary gland of Balb/c mouse. Four days post-tumor implantation, the mice were treated by the PepIQ, the control peptide (PepScram), and buffer by 2 mg/kg daily dose for 14 days via i.p. injection. The mice were sacrificed at 26 days after tumor implantation. The primary tumors and major metastasis organs, lungs and liver, were collected and examined. […] The numbers of visible metastatic nodules in lung in the PepIQ treated group were much less and the nodules were much smaller than those in the PepScram and buffer treated groups (FIGS. 5B-5D). […] To test whether the PepIQ also affected the cell migration of 4T1 cells, cell migration assays were conducted.

[7] = system: SW480 cells; assay: Boyden chamber cell migration assay, SW480; type: cell-based
Procedure: Boyden chamber assay: QCM™ 24-Well Fluorimetric Cell Migration Assay kit was used to measure the migration of SW480 cells. The test cells were first treated under the different conditions in regular cell culture plates. The treated cells were re-suspended into optimum medium (without serum) and seeded into the inner chamber of the migration assay kit. The L-15 culture medium with 10% FBS was added to the outer chambers. After overnight incubation, medium in the inner chamber was removed and the cells attached to the outer bottom side were detached using the cell detachment buffer (included in the kit). The detached cells were then lysed using the cell lysis buffer (included in the kit). The amounts of the migrated cells were determined by measuring the fluorescence using λex=485 nm and λem=535 nm. The migration of the control cells with p68 knockdown was defined as 1.

[8] = biological target: T3, p68 and CaM interaction (Homo sapiens, UniProt P0DP23); assay: CaM beads pull-down of p68; type: binding; settings: no migration stimuli
T3 construct: purchased Abcam; host or cells: p68 comes from SW480 whole cell lysate (endogenous)
Procedure: CaM beads pull-down assay was used to determine whether the PepIQ peptide affected the p68 and CaM interaction. […] Thus, the p68-CaM interaction was examined under migration stimuli by co-immunoprecipitation with extracts of SW480 cells using an antibody against CaM. […] Similarly, there was a strong increase in the p68 and CaM co-precipitation upon the EGF treatment. Calmodulin beads pull-down: Whole cell lysate from SW480 cells was prepared as previously described (Yang L, et al. Cell 127:139-155 (2006); Yang L, et al. Mol Cancer Res 3:355-363 (2005)). The agarose beads conjugated with recombinant calmodulin (Abcam) were pre-washed with Ca2+ containing buffer (2 mM CaCl2, 50 mM NaCl in 50 mM Tris-HCl pH 7.5) or EGTA containing buffer (5 mM EGTA, 50 NaCl in 50 mM Tris-HCl pH 7.5). After washing, the beads were incubated with the whole cell lysates in the Ca^2+ containing or EGTA containing buffer. The beads were extensively washed after incubation. Finally, 2× SDS-loading buffer were added to the beads and the beads were heated to 85° C. for 10 minutes. The proteins that were pulled down by the CaM beads were analyzed by 10% SDS PAGE and subsequent immunoblot.

[9] = biological target: T4, p68-CaM interaction (Homo sapiens, UniProt P0DP23); assay: p68-CaM co-immunoprecipitation in scratch-wound treated SW480 cells; type: cell-based; settings: co-immunoprecipitation with antibody against CaM
T4 construct: co-immunoprecipitation with extracts of SW480 cells using an antibody against CaM; endogenous in cells; host or cells: SW480
Procedure: Scratch-wound treatments: A scratch or multiple scratches using pipette tips were introduced into a 6 well cell culture plate. The cells were further cultured under serum starvation for 30 minutes, and were subsequently cultured for an additional indicated time. The scratch-treated cells were either directly visualized by microscopes or the cells were fixed and subsequently examined by immunostaining. Alternatively, the cells were collected and lysized. The prepared cellular extracts were then used for other analyses.
CaM beads pull-down assay was used to determine whether the PepIQ peptide affected the p68 and CaM interaction. […] Thus, the p68-CaM interaction was examined under migration stimuli by co-immunoprecipitation with extracts of SW480 cells using an antibody against CaM. […] Similarly, there was a strong increase in the p68 and CaM co-precipitation upon the EGF treatment.
To test whether the PepIQ abolished the enhancement of the p68-CaM interaction induced by cell migration, the p68-CaM interaction was probed in cell lysate of SW480 cells that were treated by the peptide.

[10] = system: SW620 xenograft; assay: Metastasis inhibition of SW620 xenograft (human CK-18 RT-PCR of spleen extracts); type: in vivo, nude mice
[11] = system: Rhodamine labeled microtubules; assay: Microtubule gliding assay; type: biochemical; design: % of gliding microtubules (n = 50): dose or concentration left out as unconfirmed; settings: for % of gliding microtubules (n = 50): only MTs with gliding speed >0.025 μm/min counted; for Mean gliding speed: only MTs with motility >0.05 μM/min
Procedure: The slide was blocked with the blocking buffer. For the slide loaded with HA-p68, 10 μl of calmodulin with 0.5 mM of Ca^2+ was added to the slide and was incubated for 10 minutes. After loading the slide was washed with the Ca^2+ containing wash buffer to remove the unbound proteins. The prepared Rodamine labeled microtubules were then loaded onto the slide. The same Ca^2+ containing wash buffer was used to remove unbound microtubules. The movement of microtubules was then recorded by the confocal microscope.
HA-p68 was purified from SW480 cells with/without scratch-wound treatment and attached to a glass slide. Rhodamine-labeled microtubule was then added to the glass slide. Migration of the microtubule in the presence and absence of ATP was then recorded.

[12] = Table 1, TAT-fused peptides 2 mg/kg i.p. daily for two weeks, mice with metastasis/mice in group
[13] = vs PepScram and buffer treated groups

For “PepIQ (FASGQINTFVSRGTPGYATGMHNGMNQQAPYAYPATAAAPFVSAGIQTSFRTGNPTGAYG)”, the “Cell migration of 4T1 cells” value [1] was “dramatically reduced”, the Metastasis rate [2, 12] was 1/5 and the Metastasis rate ([2]; Table 2, additional treatment, PepIQ vs scrambled control peptide) was 2/5. The “Effect on SW620 metastasis” value [2] was “largely diminished; also recorded: inhibited the metastasis”, the “Levels of E-cadherin and vimentin” value [3] was “not significantly affected” and the Myosin-CaM interaction [4] was “not affected”. The IQGAP1-CaM interaction [5] was “not affected”, the “Cancer metastasis in the lung (mice affected)” value ([6]; 2 mg/kg daily for 14 days i.p.) was 3 out of 4 and the “Mice with no micrometastasis lesion in liver tissue sections” value ([6]; 2 mg/kg daily for 14 days i.p.) was “two out of four”. The “Average numbers of micrometastasis lesions in liver” value ([6]; 4 fields from three tissue sections per liver, vs buffer and PepScram groups) was “substantially less”, the “Numbers of visible metastatic nodules in lung” value [6, 13] was “much less” and the “Size of metastatic nodules in lung” value [6, 13] was “much smaller”. For the same substance, the “Size of micrometastasis lesions in liver” value ([6]; vs control groups) was “substantially smaller”, the Cell migration ([7]; SW480 cells treated with peptide) was “almost completely inhibited” and the “Change in p68-CaM interaction” value [8] was “did not lead to dramatic changes”.

With “PepPhoY593: p68 aa 584-602 peptide with Y593 phosphorylation, MHNGMNQQA[p]YAYPATAAAP (SEQ ID NO:3), TAT-fused at N-terminus” the Metastasis rate [2, 12] was 3/5, the “Effect on SW620 metastasis” value [2] was “almost no effects; also recorded: no effects on cancer metastasis” and the “Levels of E-cadherin and vimentin” value [3] was “decrease in vimentin and an increase in Ecadherin”.

With “PepY593: p68 aa 584-602 peptide MHNGMNQQAYAYPATAAAP (SEQ ID NO:2), without Y593 phosphorylation, TAT-fused at N-terminus; control peptide ({TAT}-MHNGMNQQAYAYPATAAAP)” the Metastasis rate [2, 12] was 5/5 and the “Levels of E-cadherin and vimentin” value [3] was “not significantly affected”.

“eGFP-IQ: fusion protein containing amino acids 549-568 of p68 fused to the C-terminus of eGFP, expressed in SW620/SW480 cells (FVSAGIQTSFRTGNPTGTYQ; also: fused to C-terminus of eGFP)” was tested, and the “Increase in the p68-CaM interaction upon multiple scratch wound” value [9] was “not dramatically strengthened”, the Metastasis rate ([10]; Table 3, xenograft of SW620 cells expressing the protein) was 2/6 and the “Effect on cancer metastasis of the SW620 xenograft” value ([10]; protein expressed in SW620 cells) was “greatly reduced”. The Cell migration ([7]; stable expression in SW480 cells) was “dramatically inhibited”.

“p68/Ca^2+-CaM: HA-p68 immunopurified from scratch-wound treated SW480 cells, in the presence of CaM and Ca2+” was tested, and the Maximum gliding speed ([11]; ATP) was 0.52 ± 0.14 μm/min, the “% of gliding microtubules (n = 50)” value ([11]; ATP) was 74.15 ± 1.20% and the Mean gliding speed ([11]; ATP) was 0.16 ± 0.12 μm/min. For the same substance, the Maximum gliding speed ([11]; no ATP) was 0.01 ± 0.00 μm/min, the “% of gliding microtubules (n = 50)” value ([11]; no ATP) was 5.79 ± 3.13% and the Mean gliding speed ([11]; no ATP) was 0.00 ± 0.00 μm/min.
